Experimental data as given in patent US20250368651A1 (priority 2022, published 2025).
Like-named read-outs stand apart in the source and are kept apart here.

Experiments:
[1] = biological target: von Hippel-Lindau (VHL) E3 ligase (Homo sapiens, UniProt P40337); conditions: cited from earlier work
[2] = in vitro; conditions: human
[3] = in vitro; conditions: human; remark: listed apart in the source
[4] = system: gene splicing; conditions: cited from earlier work
[5] = in vitro; conditions: human; remark: listed apart in the source
[6] = biological target: RNA Seq4 […]; experiment: FP binding assay, RNA Seq4
Protocol: (§1) All synthetic DNA and RNA oligomers were purchased from Integrated DNA Technologies and reconstituted in nuclease-free water (Invitrogen #AM9932) at 1 mM. The concentration of the oligonucleotides at ˜0.1 mM was calibrated with the A260 value measured by a NanoDrop ND-1000 (Thermo, Waltham, MA, USA) and the predicted extinction coefficient (http://www.oligoevaluator.com) using Lamber-Beer's Law. The risdiplam analogues (1 mM in DMSO) were diluted in 2× assay buffer (40 mM HEPES, 200 mM NaCl for RNA; 40 mM HEPES, 200 mM NaCl, 1 mM MgCl2 for DNA) to make a 1 μM 2× working solution.
(§2) A 1:2 dilution series (8 points) of each oligonucleotide was prepared in 20-30 μL water to desired concentrations (i.e., 1-128 μM). 20-30 μL 2× working solution containing the 2× assay buffer and the small-molecule ligand was added to each oligonucleotide sample in 1:1 (v/v) and mixed by pipetting for 4 times. For fluorescence polarization measurement, 20 μL of the above 1× working solution was transferred into a 384-well, black, F-bottom microplates (Greiner Bio-One) in duplicates or triplicates. The plate was equilibrated at room temperature for 5 min before being read using a microplate reader (SYNERGY H1, BioTek; Excitation/Emission=360/460 nm) at 25° C. For compound SMN-C5, a competitive binding assay was employed to measure an apparent Kd. SMN-C5 was 1:2 serial diluted for 10 concentration points starting at 750 μM in DMSO. A mixture of SMN-C2 (0.5 μM) and DNA Seq6 (25 μM) in 1× assay buffer was prepared and incubated at room temperature for 10 minutes. 3 μL of SMN-C5 solution at each concentration was added to a 42 μL SMN-C2/DNA Seq6 mixture and incubated at room temperature for 10 minutes. The mixture was then transferred into a microplate (20 μL each well) in duplicates for fluorescence polarization readout. The experimental data were analyzed using Prism 8 software (Graphpad Software, San Diego, CA, USA).

[7] = biological target: COVID RNA (SARS-CoV-2 RNA SL5 per FIG. 8); experiment: FP binding, Kd for COVID RNA
[8] = system: SMN2 exon 7 splicing; experiment: Cell-based SMN2 splicing assay in 293T cells (minigene); design: species or system human; conditions: Homo sapiens, HEK-293T
[9] = system: seq 1-RC; experiment: FP binding assay, reverse complement of seq 1
[10] = biological target: DNA Seq6 (UGAAGGAAGGU as deoxyribonucleotides); experiment: FP binding assay, DNA Seq6; conditions: footnote c: FP assay for DNA Seq6; range = 95% CI; read-out: Kd
Protocol: as §1, §2

[11] = system: seq 1 (GAUGGAGAG), contains the AUG start codon; experiment: FP binding assay, SARS-CoV-2 seq 1 (start codon)
[12] = system: SARS-CoV-2 SL5 RNA; experiment: Deconvolution of the RNA-binding site within SL5; conditions: FIG. 7D
[13] = system: SARS-CoV-2 minigene mRNA (5′ and 3′ UTRs, Gaussia luciferase); experiment: SARS-CoV-2 minigene HEK293 cell model, RT-qPCR of viral minigene mRNA; type: cell-based; conditions: 24 hours
[14] = system: SARS-CoV-2 5′ UTR; experiment: SARS-CoV-2 5′ UTR expressing 293T cells (Gaussia luciferase cassette), RNA reduction; type: cell-based
[15] = system: SMN2 gene vs forkhead box M1 (FoxM1) gene; conditions: cited from earlier work
[16] = biological target: DNA Seq6; experiment: Competitive FP binding assay (displacement of SMN-C2 from DNA Seq6); conditions: footnote c: FP assay for DNA Seq6; competition with SMN-C2 (0.5 μM) and DNA Seq6 (25 μM); read-out: Kd (apparent, competitive FP)
Protocol: as §2

[17] = biological target: 5′-biotinylated RNA Seq4; experiment: Surface plasmon resonance (SPR) assay, RNA Seq4; type: binding; conditions: footnote b: SPR assay for RNA Seq4
Protocol: SPR experiments were performed on a Biacore T200 (GE Healthcare) instrument at 25° C. using streptavidin pre-coated SA sensor chips (GE Healthcare). The running buffer composed of 10 mM HEPES, 100 mM NaCl, 0.05% Tween 20 (w/v), 5 mM EDTA, 0.1% (v/v) DMSO at pH 6.8 was prepared freshly, filtered through the […] PVDF membrane prior to use. 5′-biotinylated RNA Seq4 was purchased from GenScript and dissolved in nuclease-free water to a concentration of 100 μM. For immobilization of the biotinylated RNA, the sensor chip was firstly conditioned with 3 consecutive 1 min injections of high salt solution (50 mM NaOH, 1M NaCl) at a flow rate of […]. Next, the biotinylated RNA was diluted 1000× in running buffer (100 nM) and applied over the streptavidin sensor chip surface at a flow rate of 10 μL/min to achieve immobilization level of about 800 RU. Finally, alkyne-PEG-biotin (50 μM in running buffer) was injected (1 min, […]) to block remaining streptavidin surface binding sites. The kinetics analysis was performed following the BiaControl Software Wizard Kinetics protocol. […] All monitored resonance signals were subtracted with signals from a non-binding reference channel. Kinetic values (Kd, ka, kd) were calculated using the BiaEvaluation Software Binding Affinity protocol with 1:1 fitting. […]

[18] = biological target: dsRNA Seq18 (5′ splice site of SMN2 exon 7 and U1 snRNA duplex); conditions: NMR chemical shift assay; cited from earlier work
[19] = cell-based SMN2 splicing assay in 293T cells, read-out: SMN2 EC50

Chain of von Hippel-Lindau (VHL) E3 ligase (P40337 54-213 limits assumed, species assumed): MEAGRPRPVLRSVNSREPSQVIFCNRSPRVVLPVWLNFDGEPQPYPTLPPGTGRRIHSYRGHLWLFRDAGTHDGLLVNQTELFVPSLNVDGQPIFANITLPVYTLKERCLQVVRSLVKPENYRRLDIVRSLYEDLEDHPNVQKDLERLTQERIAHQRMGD
Chain of von Hippel-Lindau (VHL) E3 ligase (Q15369 17-112 partner limits assumed, species assumed): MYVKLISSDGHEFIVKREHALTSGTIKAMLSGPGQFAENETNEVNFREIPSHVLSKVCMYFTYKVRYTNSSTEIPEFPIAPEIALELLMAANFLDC
Chain of von Hippel-Lindau (VHL) E3 ligase (Q15370 whole entry partner, species assumed): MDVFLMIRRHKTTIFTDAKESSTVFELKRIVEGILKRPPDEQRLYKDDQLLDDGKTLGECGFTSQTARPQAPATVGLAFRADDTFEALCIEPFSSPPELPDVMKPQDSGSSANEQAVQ

Cc1cc([C@H](C(=O)N2C[C@H](O)C[C@H]2C(=O)N[C@@H](CC(=O)N2CCC(C#Cc3ccc(C(=O)N[C@H]4C(C)(C)[C@H](Oc5ccc(C#N)c(Cl)c5)C4(C)C)cc3)CC2)c2ccccc2)C(C)C)on1 [ARD-266]
Kd [1]: micromolar

CCN1CCN(c2cc(C)c3nc(-c4cc5c(C)nc(C)cn5n4)cc(=O)n3c2)CC1 [Compound C3, 2-(4,6-dimethylpyrazolo[1,5-a]pyrazin-2-yl)-7-(4-ethylpiperazin-1-yl)-9-methyl-4H-pyrido[1,2-a]pyrimidin-4-one, reference compound]
CC50 [2]: > 30 µM
CC50 [3]: > 30 µM
number of genes whose splicing is significantly affected [4]: 13 genes
CC50 [5]: > 30 µM

Cc1cn2cc(-c3cc4ccc(N5CCN[C@@H](C)C5)cc4oc3=O)nc2c(C)n1 [Compound C4, (S)-3-(6,8-dimethylimidazo[1,2-a]pyrazin-2-yl)-7-(3-methylpiperazin-1-yl)-2H-chromen-2-one, reference compound]
Kd [6]: 25.4 ± 7.3 µM
Kd ([7]; Table 3): 1300 ± 300 nM
Kd ([7]; Table 4): 1300 ± 300 nM
EC50 ([8]; Table 3, read-out: SMN2 Splicing EC50): 13.9 ± 2.6 nM
EC50 [8, 19]: 14 ± 3 nM
binding to seq 1-RC [9]: does not bind
CC50 [3]: > 13 µM
Kd [10]: 2900 ± 300 nM
binding to seq 1 [11]: preferentially binds to seq 1

O=c1oc2cc(N3CCNCC3)ccc2cc1-c1cn2ccc(F)cc2n1 [Compound C30, 3-(7-fluoroimidazo[1,2-a]pyridin-2-yl)-7-(piperazin-1-yl)-2H-chromen-2-one]
Kd ([7]; Table 3): 210 ± 40 nM
Kd ([7]; Table 4): 210 ± 400 nM
binding site within SL5 [12]: selectively binds to the RNA structure containing the bulged G in SL5

CCOC(=O)C1=C(Nc2ccccc2)S/C(=C\c2ccc(OCCOCCn3cc(COCCOCCOCCOCCN4CCN(c5ccc6cc(-c7cn8ccc(F)cc8n7)c(=O)oc6c5)CC4)nn3)c(O)c2)C1=O [Compound C47]
reduction of viral minigene mRNA level ([13]; 25 μM, normalized with GAPDH): ~50%
effect on RNA level (RT-qPCR) ([13]; different concentrations): reduce the RNA level in a dose-dependent manner
maximum potency / activity (RNA reduction level) [14]: between those of C64 and C65

CCc1nc(C)cn2nc(-c3cc(=O)n4cc(C5CCN(C)CC5)cc(C)c4n3)cc12 [RG-7800]
sensitivity of SMN2 gene compared to FoxM1 [15]: ~10 times

Cc1cn2cc(-c3cc(=O)n4cc(N5CCN(C)CC5)ccc4n3)cc(F)c2n1 [SMN-C5, 2-(8-fluoro-2-methylimidazo[1,2-a]pyridin-6-yl)-7-(4-methylpiperazin-1-yl)-4H-pyrido[1,2-a]pyrimidin-4-one]
Kd [16]: 5.8 ± 2.5 µM
EC50 [8, 19]: 59 ± 9 nM
Kd [17]: 8 µM
Kd [18]: 28 ± 9 µM
